In ChEMBL document CHEMBL1201862, “PubChem BioAssay data set” (2004):
Values belong to the compound of their own block, whether it stands above or below them. Calls of active or inactive are those of the source.

Key:
INS1 = assay: INS-1E survival protection against cytokine death – cell-based, luminescence, retest, dose response (AID 449756); format: functional; details: Rattus norvegicus;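 further: cell death triggered by IL-1 beta plus TNF-alpha plus IFN-gamma mixture; protective hits raise ATP signal compared with cytokine alone wells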
[1] = biological target: Dual specificity protein kinase CLK2 (Homo sapiens, UniProt P49760); format: functional
[2] = biological target: Ribosomal protein S6 kinase beta-1 (Homo sapiens, UniProt P23443); format: functional;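 further: measured as one member of a kinome-wide profiling panel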
[3] = biological target: Calcium/calmodulin-dependent protein kinase type II subunit gamma (Homo sapiens, UniProt Q13555); format: functional
[4] = biological target: Eukaryotic elongation factor 2 kinase (Homo sapiens, UniProt O00418); format: functional
[5] = biological target: Serine/threonine-protein kinase 17A (Homo sapiens, UniProt Q9UEE5); format: functional
[6] = biological target: Fibroblast growth factor receptor 1 (Homo sapiens, UniProt P11362); format: functional
[7] = biological target: Casein kinase I isoform alpha (Homo sapiens, UniProt P48729); format: functional
[8] = biological target: Testis-specific serine/threonine-protein kinase 1 (Homo sapiens, UniProt Q9BXA7); format: functional
[9] = biological target: MAP/microtubule affinity-regulating kinase 3 (Homo sapiens, UniProt P27448); format: functional;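 further: MARK3 affinity measured as one member of a kinome panel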
MAP/microtubule affinity-regulating kinase 3, sequence (P27448 whole entry): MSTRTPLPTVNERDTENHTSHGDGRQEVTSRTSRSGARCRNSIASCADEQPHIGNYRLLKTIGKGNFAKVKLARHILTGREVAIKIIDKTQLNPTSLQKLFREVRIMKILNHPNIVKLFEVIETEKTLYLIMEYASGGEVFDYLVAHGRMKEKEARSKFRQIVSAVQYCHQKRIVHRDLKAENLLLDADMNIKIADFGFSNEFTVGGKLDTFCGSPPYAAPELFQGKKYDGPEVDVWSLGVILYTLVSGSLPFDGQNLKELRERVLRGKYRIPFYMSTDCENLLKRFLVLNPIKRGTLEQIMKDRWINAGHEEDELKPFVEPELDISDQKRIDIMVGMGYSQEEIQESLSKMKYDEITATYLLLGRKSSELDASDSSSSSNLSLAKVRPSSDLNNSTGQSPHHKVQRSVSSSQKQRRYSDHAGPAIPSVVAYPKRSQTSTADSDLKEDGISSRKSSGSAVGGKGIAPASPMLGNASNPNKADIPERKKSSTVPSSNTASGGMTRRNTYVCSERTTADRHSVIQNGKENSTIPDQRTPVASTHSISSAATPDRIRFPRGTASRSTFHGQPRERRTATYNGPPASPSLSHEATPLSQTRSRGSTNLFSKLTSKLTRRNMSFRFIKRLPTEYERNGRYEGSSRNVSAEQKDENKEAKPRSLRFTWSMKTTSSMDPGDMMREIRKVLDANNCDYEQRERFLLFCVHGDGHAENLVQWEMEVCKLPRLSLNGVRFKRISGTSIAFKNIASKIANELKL

[10] = biological target: High affinity nerve growth factor receptor (Homo sapiens, UniProt P04629); format: functional;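 further: NTRK1 tested as one member of a kinome-wide profiling panel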
[11] = biological target: Mitogen-activated protein kinase kinase kinase 20 (Homo sapiens, UniProt Q9NYL2); format: functional
Mitogen-activated protein kinase kinase kinase 20, sequence (Q9NYL2 whole entry): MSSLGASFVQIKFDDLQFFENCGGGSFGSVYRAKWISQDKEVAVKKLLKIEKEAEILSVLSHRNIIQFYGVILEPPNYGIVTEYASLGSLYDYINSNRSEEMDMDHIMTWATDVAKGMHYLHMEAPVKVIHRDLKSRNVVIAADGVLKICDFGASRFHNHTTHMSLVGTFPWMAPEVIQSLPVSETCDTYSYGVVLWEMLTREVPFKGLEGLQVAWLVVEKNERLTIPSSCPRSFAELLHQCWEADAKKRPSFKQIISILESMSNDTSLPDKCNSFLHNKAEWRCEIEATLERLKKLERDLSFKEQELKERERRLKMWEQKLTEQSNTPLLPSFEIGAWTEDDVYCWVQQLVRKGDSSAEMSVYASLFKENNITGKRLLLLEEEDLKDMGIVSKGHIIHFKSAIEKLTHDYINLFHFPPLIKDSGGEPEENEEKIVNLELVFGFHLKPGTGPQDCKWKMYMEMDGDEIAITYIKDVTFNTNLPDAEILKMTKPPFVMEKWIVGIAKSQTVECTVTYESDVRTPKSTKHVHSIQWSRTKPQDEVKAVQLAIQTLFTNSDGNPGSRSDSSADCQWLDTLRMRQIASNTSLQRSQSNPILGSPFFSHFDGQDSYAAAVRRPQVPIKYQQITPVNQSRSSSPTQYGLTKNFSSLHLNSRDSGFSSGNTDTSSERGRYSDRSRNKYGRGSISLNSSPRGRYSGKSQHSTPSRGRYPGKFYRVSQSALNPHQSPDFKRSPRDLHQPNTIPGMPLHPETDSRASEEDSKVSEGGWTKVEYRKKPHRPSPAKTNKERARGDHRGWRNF

[12] = biological target: Serine/threonine-protein kinase pim-3 (Homo sapiens, UniProt Q86V86); format: functional;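 further: value obtained as one member of a broad kinase panel profiling effort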
[13] = biological target: Tyrosine-protein kinase Srms (Homo sapiens, UniProt Q9H3Y6); format: functional;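 further: SRMS measured as one member of a kinome-wide kinase profiling panel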
[14] = biological target: Receptor-type tyrosine-protein kinase FLT3 (Homo sapiens, UniProt P36888); format: functional;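 further: FLT3 was tested as one member of a kinome-wide kinase panel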
[15] = biological target: MAP kinase-activated protein kinase 3 (Homo sapiens, UniProt Q16644); format: functional;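 further: value comes from a kinome-wide profiling panel in which MAPKAPK3 is one of the panel members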
[16] = biological target: Tyrosine-protein kinase ABL1 (Homo sapiens, UniProt P00519); format: functional
Tyrosine-protein kinase ABL1, sequence (P00519 whole entry): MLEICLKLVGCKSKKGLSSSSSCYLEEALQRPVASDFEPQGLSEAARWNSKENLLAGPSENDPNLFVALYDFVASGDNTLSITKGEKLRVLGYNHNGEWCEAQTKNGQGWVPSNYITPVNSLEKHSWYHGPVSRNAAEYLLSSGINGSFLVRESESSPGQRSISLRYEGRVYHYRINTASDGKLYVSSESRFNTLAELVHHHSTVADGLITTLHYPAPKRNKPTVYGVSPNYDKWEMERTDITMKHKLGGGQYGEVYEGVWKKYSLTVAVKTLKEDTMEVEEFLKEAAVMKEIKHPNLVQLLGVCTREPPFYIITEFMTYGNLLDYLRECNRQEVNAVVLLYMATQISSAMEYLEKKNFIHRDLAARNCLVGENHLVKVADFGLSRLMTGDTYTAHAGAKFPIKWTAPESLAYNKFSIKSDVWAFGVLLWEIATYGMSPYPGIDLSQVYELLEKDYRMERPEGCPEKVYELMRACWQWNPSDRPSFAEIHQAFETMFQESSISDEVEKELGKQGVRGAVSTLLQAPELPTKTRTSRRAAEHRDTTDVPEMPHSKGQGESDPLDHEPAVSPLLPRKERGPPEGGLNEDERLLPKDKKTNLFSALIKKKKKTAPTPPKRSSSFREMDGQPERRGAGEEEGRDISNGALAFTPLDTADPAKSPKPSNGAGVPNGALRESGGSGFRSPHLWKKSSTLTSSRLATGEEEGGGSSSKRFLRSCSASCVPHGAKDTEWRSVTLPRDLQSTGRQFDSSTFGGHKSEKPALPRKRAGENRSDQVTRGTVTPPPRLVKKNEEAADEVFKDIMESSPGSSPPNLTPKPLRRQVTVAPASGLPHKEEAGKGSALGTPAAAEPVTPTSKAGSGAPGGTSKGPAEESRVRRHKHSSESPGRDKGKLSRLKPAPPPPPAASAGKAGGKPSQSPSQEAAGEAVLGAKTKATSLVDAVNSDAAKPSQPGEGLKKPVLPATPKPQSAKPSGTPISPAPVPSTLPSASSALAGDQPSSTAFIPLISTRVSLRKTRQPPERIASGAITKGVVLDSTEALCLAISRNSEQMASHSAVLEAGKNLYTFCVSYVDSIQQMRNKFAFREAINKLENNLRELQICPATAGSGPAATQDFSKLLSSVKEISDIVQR

[17] = biological target: Vascular endothelial growth factor receptor 2 (Homo sapiens, UniProt P35968); format: functional
Ephrin type-A receptor 2 = Ephrin type-A receptor 2 (Homo sapiens, UniProt P29317); format: functional;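 further: EPHA2 tested as one member of a kinome-wide kinase panel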
[18] = biological target: Mitogen-activated protein kinase 1 (Homo sapiens, UniProt P28482); format: functional
[19] = biological target: Dual specificity tyrosine-phosphorylation-regulated kinase 4 (Homo sapiens, UniProt Q9NR20); format: functional
Focal adhesion kinase 1 = Focal adhesion kinase 1 (Homo sapiens, UniProt Q05397); format: functional;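 further: measured as one member of a kinome panel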
[20] = biological target: Interleukin-1 receptor-associated kinase 1 (Homo sapiens, UniProt P51617); format: functional;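 further: IRAK1 tested as one member of a kinome panel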
[21] = biological target: Interleukin-1 receptor-associated kinase 4 (Homo sapiens, UniProt Q9NWZ3); format: functional
[22] = biological target: RAC-alpha serine/threonine-protein kinase (Homo sapiens, UniProt P31749); format: functional;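 further: AKT1 affinity measured as one member of a kinome-wide kinase profiling panel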
[23] = biological target: Vascular endothelial growth factor receptor 3 (Homo sapiens, UniProt P35916); format: functional;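 further: value from a kinome-wide profiling panel, with FLT4 as the panel member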
Vascular endothelial growth factor receptor 3, sequence (P35916 whole entry): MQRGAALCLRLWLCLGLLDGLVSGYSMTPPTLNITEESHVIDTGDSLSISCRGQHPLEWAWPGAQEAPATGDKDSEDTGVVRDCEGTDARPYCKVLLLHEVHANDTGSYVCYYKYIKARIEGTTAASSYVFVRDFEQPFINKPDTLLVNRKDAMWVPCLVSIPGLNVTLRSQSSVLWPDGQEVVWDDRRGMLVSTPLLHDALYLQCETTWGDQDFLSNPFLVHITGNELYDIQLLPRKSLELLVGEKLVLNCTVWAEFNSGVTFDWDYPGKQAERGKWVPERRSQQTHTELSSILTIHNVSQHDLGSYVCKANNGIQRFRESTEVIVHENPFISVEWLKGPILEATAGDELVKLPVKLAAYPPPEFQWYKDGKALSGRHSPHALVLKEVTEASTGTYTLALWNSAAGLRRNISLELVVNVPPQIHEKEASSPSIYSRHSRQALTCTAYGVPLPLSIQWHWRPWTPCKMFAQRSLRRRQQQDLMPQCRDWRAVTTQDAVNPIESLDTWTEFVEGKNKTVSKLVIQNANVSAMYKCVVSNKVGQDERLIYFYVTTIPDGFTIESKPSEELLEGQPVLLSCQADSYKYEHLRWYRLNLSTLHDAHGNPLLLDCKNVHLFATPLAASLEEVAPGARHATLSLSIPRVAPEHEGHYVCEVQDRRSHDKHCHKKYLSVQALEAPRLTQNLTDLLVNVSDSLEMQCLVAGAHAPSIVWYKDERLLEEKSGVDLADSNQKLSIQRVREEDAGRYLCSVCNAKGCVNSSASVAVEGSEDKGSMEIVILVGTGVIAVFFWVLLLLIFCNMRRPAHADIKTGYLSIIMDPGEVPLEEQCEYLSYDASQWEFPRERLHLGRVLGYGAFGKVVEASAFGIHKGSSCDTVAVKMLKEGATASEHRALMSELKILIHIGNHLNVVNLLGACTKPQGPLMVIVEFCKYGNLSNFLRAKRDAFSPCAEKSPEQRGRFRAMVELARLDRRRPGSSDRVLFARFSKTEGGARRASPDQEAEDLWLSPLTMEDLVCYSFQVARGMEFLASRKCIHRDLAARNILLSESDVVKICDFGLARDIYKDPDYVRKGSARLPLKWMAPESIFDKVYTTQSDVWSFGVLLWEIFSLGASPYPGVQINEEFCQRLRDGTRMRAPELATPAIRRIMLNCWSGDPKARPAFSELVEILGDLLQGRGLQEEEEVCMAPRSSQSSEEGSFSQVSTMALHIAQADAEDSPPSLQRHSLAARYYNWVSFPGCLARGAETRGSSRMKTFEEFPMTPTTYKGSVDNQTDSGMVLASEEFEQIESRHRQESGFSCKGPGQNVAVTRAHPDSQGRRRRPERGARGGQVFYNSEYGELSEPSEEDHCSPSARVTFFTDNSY

[24] = biological target: Rho-associated protein kinase 1 (Homo sapiens, UniProt Q13464); format: functional;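 further: measured within a broad kinome-wide panel profiling many kinases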
[25] = biological target: Serine/threonine-protein kinase pim-2 (Homo sapiens, UniProt Q9P1W9); format: functional;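 further: value comes from a broad kinase panel profiling study in which PIM2 was one of the panel members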
[26] = biological target: cAMP-dependent protein kinase catalytic subunit alpha (Homo sapiens, UniProt P17612); format: functional
[27] = biological target: Serine/threonine-protein kinase MRCK alpha (Homo sapiens, UniProt Q5VT25); format: functional
Bcl-2-like protein 10 = biological target: T1, Bcl-2-like protein 10 (Homo sapiens, UniProt Q9HD36); assay: Bcl-B/TR3 peptide binding disruption – biochemical, fluorescence polarization, FITC-TR3 peptide, selectivity assay for Bfl-1 inhibitor project, primary screen (AID 748);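 further: fluorescence polarization from a fluorescein-labelled TR3 peptide binding purified Bcl-B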
T1 sequence (Q9HD36 whole entry): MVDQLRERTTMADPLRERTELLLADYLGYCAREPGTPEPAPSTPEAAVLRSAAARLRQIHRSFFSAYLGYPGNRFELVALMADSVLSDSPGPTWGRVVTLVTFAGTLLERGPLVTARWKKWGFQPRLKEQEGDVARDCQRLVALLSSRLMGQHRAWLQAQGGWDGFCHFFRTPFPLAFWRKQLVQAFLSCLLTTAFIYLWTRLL

Procathepsin L = Procathepsin L (Homo sapiens, UniProt P07711)
Procathepsin L, sequence (P07711 whole entry): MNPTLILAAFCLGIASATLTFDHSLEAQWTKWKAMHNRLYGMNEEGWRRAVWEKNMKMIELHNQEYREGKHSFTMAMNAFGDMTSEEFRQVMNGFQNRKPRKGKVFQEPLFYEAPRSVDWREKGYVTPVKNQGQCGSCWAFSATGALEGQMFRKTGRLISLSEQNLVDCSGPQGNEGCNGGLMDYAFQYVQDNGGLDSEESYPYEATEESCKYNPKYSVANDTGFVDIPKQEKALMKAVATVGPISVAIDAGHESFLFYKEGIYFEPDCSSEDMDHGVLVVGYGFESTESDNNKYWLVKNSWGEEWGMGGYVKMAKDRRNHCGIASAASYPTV

[28] = biological target: Glucose-6-phosphate 1-dehydrogenase (Homo sapiens, UniProt P11413); assay: inhibition of Homo sapiens G6PD, dose series – biochemical, fluorescence, selectivity assay for P. falciparum G6PD inhibitor project, dose response (AID 504792); format: functional
[29] = biological target: Intestinal-type alkaline phosphatase (Mus musculus, UniProt P24822); assay: mouse intestinal alkaline phosphatase activators, dose response, biochemical, luminescence, uHTS hits (AID 488783); format: functional
Intestinal-type alkaline phosphatase, sequence (P24822 whole entry): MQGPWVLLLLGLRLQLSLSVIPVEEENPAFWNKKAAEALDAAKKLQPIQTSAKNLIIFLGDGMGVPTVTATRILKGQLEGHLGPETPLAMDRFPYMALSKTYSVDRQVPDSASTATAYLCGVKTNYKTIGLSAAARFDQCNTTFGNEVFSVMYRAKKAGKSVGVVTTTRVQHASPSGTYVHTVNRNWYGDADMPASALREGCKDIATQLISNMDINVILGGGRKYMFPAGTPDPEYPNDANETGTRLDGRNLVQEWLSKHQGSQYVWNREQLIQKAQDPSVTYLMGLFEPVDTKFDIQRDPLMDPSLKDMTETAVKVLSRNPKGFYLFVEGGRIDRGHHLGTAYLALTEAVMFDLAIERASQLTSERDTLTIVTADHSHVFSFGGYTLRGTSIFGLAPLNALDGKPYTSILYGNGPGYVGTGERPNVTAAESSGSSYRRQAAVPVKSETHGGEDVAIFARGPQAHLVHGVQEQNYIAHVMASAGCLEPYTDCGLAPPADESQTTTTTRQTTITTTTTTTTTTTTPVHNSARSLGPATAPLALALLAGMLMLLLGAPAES

Albumin = Albumin (Bos taurus, UniProt P02769); assay: Counterscreen for inhibitors of T-cell receptor (TCR)-CD3 interaction: Fluorescence-based biochemical high throughput dose response assay to identify inhibitors of T-cell receptor (TCR)-CD3 interaction using a TAMRA-labeled BSA probe.; format: functional
[30] = biological target: G-protein coupled receptor 35 (Homo sapiens, UniProt Q9HC97); assay: inhibition of zaprinast-stimulated GPR35 beta-arrestin translocation – imaging, U2OS, beta-arrestin-GFP, zaprinast agonist, primary screen (AID 2058); format: functional;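 further: antagonist potency meaning inhibition of agonist-induced arrestin redistribution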
[31] = biological target: Sphingosine 1-phosphate receptor 4 (Homo sapiens, UniProt O95977); assay: Fluorescence dose response cell-based high throughput screening assay for antagonists of the Sphingosine 1-Phosphate Receptor 4 (S1P4). [Related pubchem assays: 1524 (Confirmation in triplicates.), 1510 (Primary screen.)]; format: functional
Beta Lactamase = Beta Lactamase (Pseudomonas aeruginosa, UniProt Q932Y6); assay: BLA reporter interference, concentration series – BLA reporter cells, FRET fluorescence, artefact control for TLR9-MyD88 binding inhibitor project, dose response (AID 588341); format: cell-based;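 further: cell based assay in CHO-K1 cells stably expressing beta-lactamase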
Fatty acid synthase = Fatty acid synthase (Homo sapiens, UniProt P49327); assay: inhibition of human FAS-TE enzyme activity – biochemical, kinetic fluorescence intensity, dose response (AID 624326); format: functional;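 further: rate of fluorescence rise from hydrolysis of a fluorogenic O-methyl fluorescein ester substrate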

Compound: Cc1ccc(NC2=C/C(=N\S(=O)(=O)c3cccs3)c3ccccc3C2=O)c(C)c1
AC50 (INS1): 404 nM (active)

Ki [1]: 50.1 nM (active)
Ki [2]: 126 nM (active)
Ki [3]: 200 nM (active)
Ki [4]: > 3980 nM (inactive)
Ki [5]: 3.98 nM (active)
Ki [6]: 25.1 nM (active)
Ki [7]: 794 nM (active)
Ki [8]: 316 nM (active)
Ki [9]: 39.8 nM (active)
Ki [10]: 20 nM (active)
Ki [11]: 200 nM (active)
Ki [12]: 1260 nM (active)
Ki [13]: > 1580 nM (inactive)
Ki [14]: 3.16 nM (active)
Ki [15]: 7940 nM (active)
Ki [16]: > 631 nM (inactive)
Ki [17]: 25.1 nM (active)
Ki (Ephrin type-A receptor 2): 794 nM (active)
Ki [18]: 158 nM (active)
Ki [19]: 3160 nM (active)
Ki (Focal adhesion kinase 1): > 1580 nM (inactive)
Ki [20]: 20 nM (active)
Ki [21]: 1580 nM (active)
Ki [22]: > 7940 nM (inactive)
Ki [23]: 3.16 nM (active)
Ki [24]: 316 nM (active)
Ki [25]: 1000 nM (active)
Ki [26]: 3980 nM (active)
Ki [27]: > 10000 nM (inactive)
Compound: O=C1Nc2ccc3ncsc3c2C1=CNc1ccc(S(=O)(=O)Nc2ccccn2)cc1

Compound: Oc1ccc(-c2cn3c(n2)SCC3)cc1O
IC50 (Bcl-2-like protein 10): 79100 nM (inactive)
IC50 (Procathepsin L): > 59600 nM (not active)
IC50 [28]: 41000 nM (inactive)
EC50 [29]: 21000 nM (active)
IC50 (Albumin): > 94100 nM (inactive)

Compound: CC(=O)N(C1=C(Cl)C(=O)c2ccccc2C1=O)C1CCCCC1
IC50 [30]: 5550 nM (active)
IC50 [31]: 2030 nM (active)
IC50 (Beta Lactamase): 5300 nM (active)
IC50 (Fatty acid synthase): 4540 nM (active)
